Target: T1, β-secretase(BACE) (Homo sapiens, UniProt P56817)
T1 construct: purchased Panvera
Assay: BACE FS1% Inhibition Assay
Type: biochemical
Details: FS1 substrate; for % Inhibition (FS) 10 μM: 10 μM test compound; for inhibition at 0.3 µM / inhibition at 1 µM / inhibition at 3 µM: read-out: % Inhibition (FS)
In short: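 Human BACE (4 μg/mL working solution) preincubated 20 min at room temperature with compound, then FS1 substrate (300 μg/mL working solution) added and incubated 1 h at room temperature. Percent inhibition calculated at each compound concentration against blank and vehicle controls.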

T1 sequence (P56817 46-501): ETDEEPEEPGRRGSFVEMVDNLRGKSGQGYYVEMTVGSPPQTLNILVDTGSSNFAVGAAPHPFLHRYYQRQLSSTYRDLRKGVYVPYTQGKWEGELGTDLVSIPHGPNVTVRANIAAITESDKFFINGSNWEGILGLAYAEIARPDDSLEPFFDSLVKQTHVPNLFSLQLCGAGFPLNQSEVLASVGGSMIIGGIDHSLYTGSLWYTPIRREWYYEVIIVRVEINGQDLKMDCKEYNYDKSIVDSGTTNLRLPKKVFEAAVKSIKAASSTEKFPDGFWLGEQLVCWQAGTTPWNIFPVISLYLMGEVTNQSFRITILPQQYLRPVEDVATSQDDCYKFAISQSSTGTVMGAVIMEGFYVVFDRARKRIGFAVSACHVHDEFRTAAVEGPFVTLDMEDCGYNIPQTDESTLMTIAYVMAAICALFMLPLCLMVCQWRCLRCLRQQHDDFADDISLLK

SMILES	% Inhibition (FS) 0.3 μM (0.3 μM test compound) [%]	% Inhibition (FS) 1 μM (1 μM test compound) [%]	% Inhibition (FS) 3 μM (3 μM test compound) [%]	further results
CCCN(CC1CC1)C(=O)c1cccc(CN2Cc3cc(Oc4ccccc4)ccc3N=C2N)c1 [Compound 197]	<30	<30	32	
NC1=Nc2ccc(Oc3ccccc3)cc2CN1C1c2ccccc2-c2cccc(C(=O)N(C3CCCCC3)C3CCCCC3)c21 (centres unmarked) [Compound 124]			56	% Inhibition (FS) 10 μM: 67%
CCCC=Cc1ccc2c(c1)CN(CCNC(=O)C1CCCCC1)C(N)=N2 [Compound 577]	<30	<30	<30	
COc1ccc(C)cc1-c1ccc2c(c1)CN(CCNC(=O)C1CCCCC1)C(N)=N2 [Compound 630]	<30	<30	48	
CN(C(=O)c1cccc(CN2Cc3cc(Oc4cccc(-c5ccc6ccccc6n5)c4)ccc3N=C2N)c1)C1CCCCC1 [Compound 473]	<30	<30	<30	
NC1=Nc2ccc(Oc3ccccc3)cc2CN1C1CCN(C(=O)C2CCCCC2)C1 (centres unmarked) [Compound 119]			42	% Inhibition (FS) 10 μM: 75%
NC1=Nc2ccc(-c3ccccc3)cc2CN1CCNC(=O)CCC(F)(F)F [Compound 684]				% Inhibition (FS) (0.3 μM test compound): 33%; % Inhibition (FS) (1 μM test compound): 38%; % Inhibition (FS) (3 μM test compound): 78%
NC1=Nc2ccc(Oc3ccccc3)cc2CN1CCCCNC(=O)C1CCCC1 [Compound 116]			39	% Inhibition (FS) 10 μM: 81%
CC(C)(C)C(=O)NCCN1Cc2cc(Br)ccc2N=C1N [Compound 809]				inhibition at 0.3 µM (0.3 μM test compound): < 30%; inhibition at 1 µM (1 μM test compound): < 30%; inhibition at 3 µM (3 μM test compound): 32%
CC(C)(C)c1ccc(C(=O)NCCN2Cc3cc(Oc4ccccc4)ccc3N=C2N)cc1 [Compound 156]			<30	% Inhibition (FS) 10 μM: 40%
CC(C)[C@@H](CNC(=O)C1CCCCC1)N1Cc2cc(Oc3ccccc3)ccc2N=C1N [Compound 528]	<30	<30	41	
CC(C)(C)OC(=O)NCC(C1CCCCC1)N1Cc2cc(Oc3ccccc3)ccc2N=C1N (centres unmarked) [Compound 257]	67	105	111	
CN(C)c1ccc(C(=O)NCCN2Cc3cc(Oc4ccccc4)ccc3N=C2N)cc1 [Compound 189]	<30	<30	<30	
CN(C)c1ccc(Nc2ccc3c(c2)CN(Cc2cccc(C(=O)N(C)C4CCCCC4)c2)C(N)=N3)cc1 [Compound 438]	<30	<30	<30	
CCCC(=O)NCCN1Cc2cc(-c3ccccc3Cl)ccc2N=C1N [Compound 652]	31	63	91	
NC1=Nc2ccc(-c3cnc4ccccc4c3)cc2CN1CCNC(=O)C12CC3CC(CC(C3)C1)C2 [Compound 672]				% Inhibition (FS) (0.3 μM test compound): <30%; % Inhibition (FS) (1 μM test compound): <30%; % Inhibition (FS) (3 μM test compound): <30%
CSc1ccccc1-c1ccc2c(c1)CN(CCNC(=O)C1CCCCC1)C(N)=N2 [Compound 540]	<30	30	84	
CCCC=Cc1ccc2c(c1)CN(CCNC(=O)c1cccc(C#N)c1)C(N)=N2 [Compound 568]	<30	<30	<30	
CN(C(=O)c1cccc(CN2Cc3cc(-c4cccc(-c5ccccc5)c4)ccc3N=C2N)c1)C1CCCCC1 [Compound 171]	<30	31	42	
CN(C(=O)CCC(c1ccc(-c2ccccc2)cc1)N1Cc2cc(Oc3ccccc3)ccc2N=C1N)C1CCCCC1 (centres unmarked) [Compound 420]	<30	<30	53	
N#Cc1cccc(C(=O)NCCN2Cc3cc(Br)ccc3N=C2N)c1 [Compound 807]				inhibition at 0.3 µM (0.3 μM test compound): < 30%; inhibition at 1 µM (1 μM test compound): < 30%; inhibition at 3 µM (3 μM test compound): < 30%
COc1ccccc1-c1ccc2c(c1)CN([C@@H](CCC(=O)N(C)Cc1cnn(-c3ccccc3)c1)C1CCCCC1)C(N)=N2 [Compound 717]				% Inhibition (FS) (0.3 μM test compound): 33%; % Inhibition (FS) (1 μM test compound): 39%; % Inhibition (FS) (3 μM test compound): 72%
NC1=Nc2ccc(-c3ccccc3Cl)cc2CN1CCNC(=O)C1CCC(C(F)(F)F)CC1 (centres unmarked) [Compound 690]				% Inhibition (FS) (0.3 μM test compound): <30%; % Inhibition (FS) (1 μM test compound): <30%; % Inhibition (FS) (3 μM test compound): 52%

Reference: patent US8383637B2, “2-amino-quinazoline derivatives useful as inhibitors of β-secretase (BACE)” (Jansssen Pharmaceutica N.V., priority 2004, dated 2013)
